# According to US20240101549A1, “N-(2-(4-CYANOTHIAZOLIDIN-3-YL)-2-OXOETHYL)-QUINOLINE-4-CARBOXAMIDES” (AstraZeneca AB, priority 2020, published 2024):
# Molecular target: FAP (Macaca fascicularis, UniProt A0A2K5VGH4)
# Experiment: FAP plasma inhibition assay, cynomolgus plasma
# Assay type: biochemical
# Conditions: cynomolgus plasma diluted 1:40, 75 μM Ala-Pro-AMC; n = 1; read-out: FAP Cyno Plasma IC50
# Procedure: D. FAP Plasma Inhibition Assay This assay was adapted from the method described in Example 237 for detection of FAP target engagement enzyme activity in plasma. […] Compounds were tested using 10 CR, 3 fold dilution series from 500 nM FAC. Two replicates for each assay point were run on the same plate. A fluorescence blank read was taken before substrate addition. […] Plates were incubated for 40 min at rt in the dark. […] IC50 values were determined by plotting % inhibition versus log compound concentration.
# Chain of FAP (A0A2K5VGH4 entry or part of it): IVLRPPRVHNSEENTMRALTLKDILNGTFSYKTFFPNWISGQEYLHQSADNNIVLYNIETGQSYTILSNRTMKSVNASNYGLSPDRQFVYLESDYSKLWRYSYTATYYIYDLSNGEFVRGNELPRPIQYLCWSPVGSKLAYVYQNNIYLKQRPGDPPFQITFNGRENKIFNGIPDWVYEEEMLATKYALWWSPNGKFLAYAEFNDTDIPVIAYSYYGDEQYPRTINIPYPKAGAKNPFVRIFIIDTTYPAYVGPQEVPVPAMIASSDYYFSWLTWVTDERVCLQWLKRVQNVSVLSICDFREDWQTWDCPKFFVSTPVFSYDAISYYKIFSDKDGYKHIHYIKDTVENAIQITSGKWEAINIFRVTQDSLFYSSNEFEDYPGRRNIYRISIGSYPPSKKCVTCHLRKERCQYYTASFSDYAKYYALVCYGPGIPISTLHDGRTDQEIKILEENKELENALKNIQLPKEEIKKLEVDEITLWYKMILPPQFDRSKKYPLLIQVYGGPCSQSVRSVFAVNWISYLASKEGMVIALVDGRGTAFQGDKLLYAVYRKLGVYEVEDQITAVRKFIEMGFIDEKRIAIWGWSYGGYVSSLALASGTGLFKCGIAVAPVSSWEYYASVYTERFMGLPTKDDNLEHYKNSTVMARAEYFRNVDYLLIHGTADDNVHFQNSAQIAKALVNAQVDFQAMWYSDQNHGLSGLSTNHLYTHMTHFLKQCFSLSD
row,Compound,IC50 [nM]
1,"COC1CCN(c2ccc3nccc(C(=O)NCC(=O)N4CSC[C@H]4C#N)c3c2)CC1 [Example 8, (R)—N-(2-(4-Cyanothiazolidin-3-yl)-2-oxoethyl)-6-(4-methoxypiperidin-1-yl)quinoline-4-carboxamide]",0.2
2,"CC1(C)OCCN(c2ccc3nccc(C(=O)NCC(=O)N4CSC[C@H]4C#N)c3c2)C1=O [Example 16, (R)—N-(2-(4-Cyanothiazolidin-3-yl)-2-oxoethyl)-6-(2,2-dimethyl-3-oxomorpholino)quinoline-4-carboxamide]",0.2
3,"CC1(F)CN(c2ccc3nccc(C(=O)NCC(=O)N4CSC[C@H]4C#N)c3c2)C1 [Example 24, (R)—N-(2-(4-Cyanothiazolidin-3-yl)-2-oxoethyl)-6-(3-fluoro-3-methyl-azetidin-1-yl)quinoline-4-carboxamide]",0.3
4,"CC1(CF)CN(c2ccc3nccc(C(=O)NCC(=O)N4CSC[C@H]4C#N)c3c2)C1 [Example 27, (R)—N-(2-(4-Cyanothiazolidin-3-yl)-2-oxoethyl)-6-(3-(fluoromethyl)-3-methylazetidin-1-yl)quinoline-4-carboxamide]",0.3
5,"N#C[C@@H]1CSCN1C(=O)CNC(=O)c1ccnc2ccc(N3C[C@@H](F)[C@@H](F)C3)cc12 [Example 50, N-(2-((R)-4-Cyanothiazolidin-3-yl)-2-oxoethyl)-6-((3R,4S)-3,4-difluoropyrrolidin-1-yl)quinoline-4-carboxamide]",0.3
6,"C[C@@H]1CN(c2ccc3nccc(C(=O)NCC(=O)N4CSC[C@H]4C#N)c3c2)C[C@H](C)O1 [Example 68, N-(2-((R)-4-Cyanothiazolidin-3-yl)-2-oxoethyl)-6-((2R,6S)-2,6-dimethylmorpholino)-quinoline-4-carboxamide]",0.3
7,"N#C[C@@H]1CSCN1C(=O)CNC(=O)c1ccnc2ccc(N3CCO[C@@H](CF)C3)cc12 [Example 69, N-(2-((R)-4-Cyanothiazolidin-3-yl)-2-oxoethyl)-6-((R)-2-(fluoromethyl)morpholino)-quinoline-4-carboxamide]",0.2
8,"C[C@@H]1CN(c2ccc3nccc(C(=O)NCC(=O)N4CSC[C@H]4C#N)c3c2)C[C@@H](C)O1 [Example 70, N-(2-((R)-4-Cyanothiazolidin-3-yl)-2-oxoethyl)-6-((2R,6R)-2,6-dimethylmorpholino)-quinoline-4-carboxamide]",0.2
9,"N#C[C@@H]1CSCN1C(=O)CNC(=O)c1ccnc2ccc(N3CCO[C@H](CF)C3)cc12 [Example 71, N-(2-((R)-4-Cyanothiazolidin-3-yl)-2-oxoethyl)-6-((S)-2-(fluoromethyl)morpholino)-quinoline-4-carboxamide]",0.2
10,"C[C@@H]1CN(c2ccc3nccc(C(=O)NCC(=O)N4CSC[C@H]4C#N)c3c2)CCO1 [Example 72, N-(2-((R)-4-Cyanothiazolidin-3-yl)-2-oxoethyl)-6-((R)-2-methylmorpholino)-quinoline-4-carboxamide]",0.2
11,"N#C[C@@H]1CSCN1C(=O)CNC(=O)c1ccnc2ccc(N3CCO[C@H](C(F)(F)F)C3)cc12 [Example 74, N-(2-((R)-4-Cyanothiazolidin-3-yl)-2-oxoethyl)-6-((S)-2-(trifluoromethyl)-morpholino)quinoline-4-carboxamide]",0.2
12,"C[C@@H]1OCCN(c2ccc3nccc(C(=O)NCC(=O)N4CSC[C@H]4C#N)c3c2)[C@H]1C [Example 82, N-(2-((R)-4-Cyanothiazolidin-3-yl)-2-oxoethyl)-6-((2S,3S)-2,3-dimethyl-morpholino)quinoline-4-carboxamide]",0.3
13,"C[C@H]1COCCN1c1ccc2nccc(C(=O)NCC(=O)N3CSC[C@H]3C#N)c2c1 [Example 102, N-(2-((R)-4-Cyanothiazolidin-3-yl)-2-oxoethyl)-6-((S)-3-methyl-morpholino)quinoline-4-carboxamide]",0.2
14,"CC1(C)CCN(c2ccc3nccc(C(=O)NCC(=O)N4CSC[C@H]4C#N)c3c2)C(=O)O1 [Example 112, (R)—N-(2-(4-Cyanothiazolidin-3-yl)-2-oxoethyl)-6-(6,6-dimethyl-2-oxo-1,3-oxazinan-3-yl)quinoline-4-carboxamide]",0.5
15,"CC(F)(F)C1CN(c2ccc3nccc(C(=O)NCC(=O)N4CSC[C@H]4C#N)c3c2)C1 [Example 147, (R)—N-(2-(4-Cyanothiazolidin-3-yl)-2-oxoethyl)-6-(3-(1,1-difluoroethyl)-azetidin-1-yl)quinoline-4-carboxamide]",0.1
16,"COC1(C)CN(c2ccc3nccc(C(=O)NCC(=O)N4CSC[C@H]4C#N)c3c2)C1 [Example 151, (R)—N-(2-(4-Cyanothiazolidin-3-yl)-2-oxoethyl)-6-(3-methoxy-3-methylazetidin-1-yl)quinoline-4-carboxamide]",0.3
17,"N#C[C@@H]1CSCN1C(=O)CNC(=O)c1ccnc2ccc(N3CC(F)(CF)C3)cc12 [Example 157, (R)—N-(2-(4-Cyanothiazolidin-3-yl)-2-oxoethyl)-6-(3-fluoro-3-(fluoromethyl)azetidin-1-yl)quinoline-4-carboxamide]",0.4
18,"N#C[C@@H]1CSCN1C(=O)CNC(=O)c1ccnc2ccc(N3CC4(C3)OCCO4)cc12 [Example 163, (R)—N-(2-(4-Cyanothiazolidin-3-yl)-2-oxoethyl)-6-(5,8-dioxa-2-azaspiro[3.4]octan-2-yl)quinoline-4-carboxamide]",0.2
19,"CC(=O)NCC1(C)CN(c2ccc3nccc(C(=O)NCC(=O)N4CSC[C@H]4C#N)c3c2)C1 [Example 181, (R)-6-(3-(Acetamidomethyl)-3-methylazetidin-1-yl)-N-(2-(4-cyano-thiazolidin-3-yl)-2-oxoethyl)quinoline-4-carboxamide]",0.5
20,"CN1CCC(F)(c2ccc3nccc(C(=O)NCC(=O)N4CSC[C@H]4C#N)c3c2)CC1 [Example 195, (R)—N-(2-(4-Cyanothiazolidin-3-yl)-2-oxoethyl)-6-(4-fluoro-1-methyl-piperidin-4-yl)quinoline-4-carboxamide]",1
21,"N#C[C@@H]1CSCN1C(=O)CNC(=O)c1ccnc2ccc(N3CCC(F)CC3)cc12 [Example 205, (R)—N-(2-(4-Cyanothiazolidin-3-yl)-2-oxoethyl)-6-(4-fluoropiperidin-1-yl)quinoline-4-carboxamide]",0.3

# Tested on: not listed separately
# Experiment: Caco-2 cell permeability
# Assay type: in vitro ADME
# Conditions: human, Caco-2, AB intrinsic; n = 1 or average of n = 2-4; read-out: Caco2 AB Intrinsic Papp
# Procedure: Caco-2 cell permeability was measured as described in Mol Pharm 2017, 14, 1601.
row,Compound,Papp A→B [×10⁻⁶ cm/s]
1,"COCC1(C)CN(c2ccc3nccc(C(=O)NCC(=O)N4CSC[C@H]4C#N)c3c2)C1 [Example 29, (R)—N-(2-(4-Cyanothiazolidin-3-yl)-2-oxoethyl)-6-(3-(methoxymethyl)-3-methylazetidin-1-yl)quinoline-4-carboxamide]",26
2,"CO[C@@H]1CN(c2ccc3nccc(C(=O)NCC(=O)N4CSC[C@H]4C#N)c3c2)[C@H]1C [Example 30, N-(2-((R)-4-Cyanothiazolidin-3-yl)-2-oxoethyl)-6-((2S,3R)-3-methoxy-2-methylazetidin-1-yl)quinoline-4-carboxamide]",15
3,"CC1(C)Cc2c(-c3ccc4nccc(C(=O)NCC(=O)N5CSC[C@H]5C#N)c4c3)cnn2C1 [Example 123, (R)—N-(2-(4-Cyanothiazolidin-3-yl)-2-oxoethyl)-6-(5,5-dimethyl-5,6-dihydro-4H-pyrrolo[1,2-b]pyrazol-3-yl)quinoline-4-carboxamide]",14
4,"CC1(O)CN(c2ccc3nccc(C(=O)NCC(=O)N4CSC[C@H]4C#N)c3c2)C1 [Example 165, (R)—N-(2-(4-Cyanothiazolidin-3-yl)-2-oxoethyl)-6-(3-hydroxy-3-methyl-azetidin-1-yl)quinoline-4-carboxamide]",0.51
